The test system of experiment [1] is SNU-16 human gastric cancer cell line xenograft. The experiment can be described thus: Human gastric tumor (HGS) xenograft model. The class given is in vivo, mice. The settings on record: day 42 after inoculation, 20/kg of compound (vehicle group 645). On the procedure: Human Gastric Tumor Model:
SNU-16 human gastric cancer cell line can be used to generate a xenograft model to determine the effects of a FGFR inhibitor of the present disclosure (test compound) as a single agent treatment to target FGFR-dependent tumor growth. SNU-16 cells are grown in tissue culture as described in Example 2 above. For tumor inoculation, approximately 1×10^7 cells are mixed with Matrigel (1:1) and are implanted into the rear flank of immuno compromised Balb/c nu/nu mice. Tumor-bearing mice are monitored twice weekly in two dimensions using a caliper and the volume expressed in mm^3 using the formula: V=0.5 a×b^2 where a and b are the long and short diameters of the tumor respectively. Once tumor volume reaches a mean average of 175 mm^3 mice are randomized into 3 groups (n=8-10 per group) receiving either vehicle control (0.5% methyl cellulose w/w) or the test compound by oral gavage. Dosing continues for 5-21 days with tumor volumes measured daily or every other day. It is expected that tumor growth will be inhibited in animals treated with the test compound. […] Inhibition of FGFR pathway can be assessed by detection of FGFR auto phosphorylation activity. […] Tumor samples are collected at 8 h or 12 h post the last dosing and FGFR auto phosphorylation activity is determined. […]

In the next experiment the test system is SNU-16 cells. The experiment can be described thus: Inhibition of FGFR2-dependent cell growth (Cell-titer Glo). The class given is cell-based. The settings on record: Homo sapiens, SNU-16, 72 h, 72 hrs incubation, cell viability, read-out: SNU16 IC50 values. On the procedure: The cell-based effects of FGFR inhibitors were determined by measuring inhibition of FGFR-dependent cell line growth. The cell lines SNU-16 was used for these assays. […] Percent inhibition of cell growth was calculated as a percentage of untreated cell viability. The percent inhibition was plotted as a function of log compound concentration. The IC50 was then calculated for each compound using Prism software from GraphPad.

In turn, `C=CC(=O)N1CCN(CCCn2c(=O)c(-c3c(Cl)c(OC)cc(OC)c3Cl)cc3cnc(NC)nc32)CC1` [8-(3-(4-acryloylpiperazin-1-yl)propyl)-6-(2,6-dichloro-3,5-dimethoxyphenyl)-2-(methylamino)pyrido[2,3-d]pyrimidin-7(8H)-one] gave a tumor size in experiment [1] of 55 mm3.
For `CNc1ncc2cc(-c3cc(OC)cc(OC)c3Cl)c(=O)n(CCc3csc(NC(=O)C(C#N)=CC(C)(C)C)n3)c2n1` [Cpd 67 (table 2), N-(4-(2-(6-(2-chloro-3,5-dimethoxyphenyl)-2-(methylamino)-7-oxopyrido[2,3-d]pyrimidin-8(7H)-yl)ethyl)thiazol-2-yl)-2-cyano-4,4-dimethylpent-2-enamide], in the experiment on SNU-16 cells, the 50% inhibitory concentration (IC50) (in general, the concentration needed to halve the response being measured) is 936 nM.
Still for that read-out and setting: the value for `COc1cc(OC)c(Cl)c(-c2cc3cnc(NCCN4CCOCC4)nc3n(CCc3ccc(NC(=O)C(C#N)=CC(C)(C)C)cc3)c2=O)c1` [Cpd 68 (table 2), N-(4-(2-(6-(2-chloro-3,5-dimethoxyphenyl)-2-((2-morpholinoethyl)amino)-7-oxopyrido[2,3-d]pyrimidin-8(7H)-yl)ethyl)phenyl)-2-cyano-4,4-dimethylpent-2-enamide] was 35.5 nM; that for `CNc1ncc2cc(-c3cc(OC)cc(OC)c3Cl)c(=O)n(CCc3cnc(NC(=O)C(C#N)=CC(C)(C)C)cn3)c2n1` [Cpd 71 (table 2), N-(5-(2-(6-(2-chloro-3,5-dimethoxyphenyl)-2-(methylamino)-7-oxopyrido[2,3-d]pyrimidin-8(7H)-yl)ethyl)pyrazin-2-yl)-2-cyano-4,4-dimethylpent-2-enamide] was 79.6 nM; that for `CNc1ncc2cc(-c3cc(OC)cc(OC)c3Cl)c(=O)n(CCCc3ccc(C=C(C#N)C(=O)NC(C)(C)C)cc3)c2n1` [Cpd 75 (table 2), N-(tert-butyl)-3-(4-(3-(6-(2-chloro-3,5-dimethoxyphenyl)-2-(methylamino)-7-oxopyrido[2,3-d]pyrimidin-8(7H)-yl)propyl)phenyl)-2-cyanoacrylamide] was 87.2 nM.

The record behind these values is US10538517B2, “Quinolone derivatives as FGFR inhibitors” (Principia Biopharma, Inc., priority 2015, dated 2020).
